For 1 compound, IC50 results are on record in patent US20020143013A1, “Thioxazinoquinolones as antiviral agents” (priority 2001, published 2002).

This experiment concerns the target T1, HCMV polymerase (Human cytomegalovirus, UniProt P08546).
T1 construct: made in house; host or cells: recombinant baculovirus-infected SF-9 cells
Put plainly: HCMV polymerase assay (modified scintillation proximity assay). Type of experiment: biochemical. Conditions: modified SPA assay; compounds diluted in 100% DMSO; 4.5 mM DTT in polymerase buffer. As to the method:
The HCMV polymerase assay is performed using a scintillation proximity assay (SPA) as described in several references, such as N. D. Cook, et al., Pharmaceutical Manufacturing International, pages 49-53 (1992); K. Takeuchi, Laboratory Practice, September issue (1992); U.S. Pat. No. 4,568,649 (1986); which are incorporated by reference herein. Reactions are performed in 96-well plates. The assay is conducted in 100 μl volume with 5.4 mM HEPES (pH 7.5), 11.7 mM KCl, 4.5 mM MgCl2, 0.36 mg/ml BSA, and 90 nM ^3H-dTTP. Assays are run with and without CHAPS, (3-[(3-Cholamidopropyl)-dimethylammonio]-1-propane-sulfonate) at a final concentration of 2 mM. HCMV polymerase is diluted in enzyme dilution buffer containing 50% glycerol, 250 mM NaCl, 10 mM HEPES (pH 7.5), 100 μg/ml BSA, and 0.01% sodium azide. The HCMV polymerase, which is expressed in recombinant baculovirus-infected SF-9 cells and purified according to literature procedures, is added at 10% (or 10 μl) of the final reaction volume, i.e., 100 μl. Compounds are diluted in 50% DMSO and 10 μl are added to each well. Control wells contain an equivalent concentration of DMSO. […] Plates are incubated 10 min. at 37 C., then equilibrated to room temperature, and counted on a Packard Topcount. Linear regressions are performed and IC50's are calculated using computer software. […]

T1 sequence (P08546 whole entry): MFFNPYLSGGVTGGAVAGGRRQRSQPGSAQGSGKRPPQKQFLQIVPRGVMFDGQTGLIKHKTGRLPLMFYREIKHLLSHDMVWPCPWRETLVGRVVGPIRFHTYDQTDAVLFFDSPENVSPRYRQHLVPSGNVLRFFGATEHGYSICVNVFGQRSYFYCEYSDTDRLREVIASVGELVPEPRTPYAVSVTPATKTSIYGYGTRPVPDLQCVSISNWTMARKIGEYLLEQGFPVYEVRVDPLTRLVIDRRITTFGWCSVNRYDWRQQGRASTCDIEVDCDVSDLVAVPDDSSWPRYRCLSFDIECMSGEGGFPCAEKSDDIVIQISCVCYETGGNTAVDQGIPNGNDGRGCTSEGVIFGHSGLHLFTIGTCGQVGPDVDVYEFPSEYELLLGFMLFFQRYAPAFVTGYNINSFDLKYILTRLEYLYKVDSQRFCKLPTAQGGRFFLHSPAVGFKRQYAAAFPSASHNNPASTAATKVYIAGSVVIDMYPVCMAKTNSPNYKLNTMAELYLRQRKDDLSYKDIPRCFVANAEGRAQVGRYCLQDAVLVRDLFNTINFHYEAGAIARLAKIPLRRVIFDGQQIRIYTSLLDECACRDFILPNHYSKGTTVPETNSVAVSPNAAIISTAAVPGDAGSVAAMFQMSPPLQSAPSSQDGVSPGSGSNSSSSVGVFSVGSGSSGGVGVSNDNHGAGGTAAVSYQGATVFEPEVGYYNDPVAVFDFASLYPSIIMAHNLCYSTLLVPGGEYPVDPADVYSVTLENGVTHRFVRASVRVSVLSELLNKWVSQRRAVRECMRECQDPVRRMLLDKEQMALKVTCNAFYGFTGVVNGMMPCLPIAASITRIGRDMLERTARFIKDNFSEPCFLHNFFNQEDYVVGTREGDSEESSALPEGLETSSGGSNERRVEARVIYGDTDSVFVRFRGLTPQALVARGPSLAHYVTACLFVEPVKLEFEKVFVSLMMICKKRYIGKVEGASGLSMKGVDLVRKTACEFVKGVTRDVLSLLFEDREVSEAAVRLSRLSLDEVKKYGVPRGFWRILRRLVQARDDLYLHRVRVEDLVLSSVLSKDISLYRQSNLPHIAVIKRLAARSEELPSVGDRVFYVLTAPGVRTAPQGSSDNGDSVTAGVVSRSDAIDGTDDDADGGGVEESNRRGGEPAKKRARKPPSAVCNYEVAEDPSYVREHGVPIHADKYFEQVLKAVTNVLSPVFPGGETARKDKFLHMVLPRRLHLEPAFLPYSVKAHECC

In turn, `O=C(NCc1ccc(Cl)cc1)c1cn2c3c(cc(CN4CCOCC4)cc3c1=S)OCC2` [Example 1, N-(4-chlorobenzyl)-9-(4-morpholinylmethyl)-7-thioxo-2,3-dihydro-7H-[1,4]oxazino[2,3,4-ij]quinoline-6-carboxamide] had an IC50 of 0.06 µM.

Broadly, the IC50 is the point on the concentration scale where inhibition reaches its midpoint.
